Experimental data taken from the NIST ThermoML archive (doi:10.1016/j.jct.2010.08.010).
Numbers after ± are expanded uncertainties.

Details: Liquid, Buoyancy - hydrostatic balance with magnetic suspension - one sinker

Cc1ccccc1 [toluene]
Details	mass density [kg/m3]
233.15 K, 101.25 kPa	922.207 ± 0.21
233.15 K, 1055.6 kPa	922.722 ± 0.21
233.15 K, 1861.3 kPa	923.156 ± 0.21
233.15 K, 3871.1 kPa	924.223 ± 0.21
233.15 K, 5873.9 kPa	925.287 ± 0.22
233.15 K, 8031.1 kPa	926.415 ± 0.22
233.15 K, 9906.5 kPa	927.392 ± 0.22
233.15 K, 11973 kPa	928.445 ± 0.22
233.15 K, 13947 kPa	929.451 ± 0.22
233.15 K, 15971 kPa	930.461 ± 0.22
233.15 K, 18029 kPa	931.487 ± 0.22
233.15 K, 19921 kPa	932.422 ± 0.22
233.15 K, 22000 kPa	933.432 ± 0.22
233.15 K, 24029 kPa	934.411 ± 0.22
233.15 K, 25833 kPa	935.279 ± 0.22
233.15 K, 27876 kPa	936.25 ± 0.22
233.15 K, 29776 kPa	937.146 ± 0.22
253.15 K, 102.01 kPa	903.705 ± 0.21
253.15 K, 1102.6 kPa	904.316 ± 0.21
253.15 K, 1837.1 kPa	904.762 ± 0.21
253.15 K, 3915.8 kPa	906 ± 0.21
253.15 K, 6024.3 kPa	907.237 ± 0.21
253.15 K, 7905.8 kPa	908.333 ± 0.21
253.15 K, 9884.5 kPa	909.467 ± 0.21
253.15 K, 11995 kPa	910.665 ± 0.21
253.15 K, 13975 kPa	911.777 ± 0.21
253.15 K, 15951 kPa	912.877 ± 0.21
253.15 K, 17978 kPa	913.989 ± 0.21
253.15 K, 20022 kPa	915.098 ± 0.21
253.15 K, 21921 kPa	916.119 ± 0.21
253.15 K, 24088 kPa	917.274 ± 0.21
253.15 K, 25990 kPa	918.275 ± 0.21
253.15 K, 27827 kPa	919.23 ± 0.21
253.15 K, 29746 kPa	920.223 ± 0.21
273.15 K, 97.87 kPa	885.25 ± 0.21
273.15 K, 1027.8 kPa	885.881 ± 0.21
273.15 K, 1996.9 kPa	886.534 ± 0.21
273.15 K, 4081.7 kPa	887.926 ± 0.21
273.15 K, 5913.4 kPa	889.129 ± 0.21
273.15 K, 8004.2 kPa	890.482 ± 0.21
273.15 K, 9932.4 kPa	891.714 ± 0.21
273.15 K, 11880 kPa	892.948 ± 0.21
273.15 K, 13888 kPa	894.195 ± 0.21
273.15 K, 16098 kPa	895.56 ± 0.21
273.15 K, 18099 kPa	896.771 ± 0.21
273.15 K, 19969 kPa	897.897 ± 0.21
273.15 K, 21860 kPa	899.011 ± 0.21
273.15 K, 23914 kPa	900.215 ± 0.21
273.15 K, 25980 kPa	901.41 ± 0.21
273.15 K, 28070 kPa	902.607 ± 0.21
273.15 K, 30123 kPa	903.766 ± 0.21
293.15 K, 99.87 kPa	866.733 ± 0.2
293.15 K, 101.56 kPa	866.808 ± 0.2
293.15 K, 1103.1 kPa	867.572 ± 0.2
293.15 K, 1127.8 kPa	867.518 ± 0.2
293.15 K, 1967 kPa	868.206 ± 0.2
293.15 K, 2003.6 kPa	868.257 ± 0.2
293.15 K, 2021.4 kPa	868.196 ± 0.2
293.15 K, 3955.9 kPa	869.643 ± 0.2
293.15 K, 4003.3 kPa	869.731 ± 0.2
293.15 K, 4004.5 kPa	869.753 ± 0.2
293.15 K, 5995 kPa	871.216 ± 0.2
293.15 K, 6031.6 kPa	871.224 ± 0.2
293.15 K, 6107.1 kPa	871.23 ± 0.2
293.15 K, 8032.8 kPa	872.623 ± 0.2
293.15 K, 8164.1 kPa	872.766 ± 0.2
293.15 K, 8180.3 kPa	872.799 ± 0.2
293.15 K, 9984.8 kPa	874.014 ± 0.2
293.15 K, 10008 kPa	874.081 ± 0.2
293.15 K, 10026 kPa	874.114 ± 0.2
293.15 K, 12005 kPa	875.479 ± 0.2
293.15 K, 12114 kPa	875.512 ± 0.2
293.15 K, 12190 kPa	875.631 ± 0.2
293.15 K, 13874 kPa	876.778 ± 0.2
293.15 K, 13947 kPa	876.779 ± 0.2
293.15 K, 14049 kPa	876.921 ± 0.2
293.15 K, 15849 kPa	878.081 ± 0.2
293.15 K, 16015 kPa	878.24 ± 0.2
293.15 K, 16153 kPa	878.35 ± 0.2
293.15 K, 17969 kPa	879.506 ± 0.2
293.15 K, 18022 kPa	879.584 ± 0.2
293.15 K, 18058 kPa	879.633 ± 0.2
293.15 K, 19969 kPa	880.88 ± 0.2
293.15 K, 19990 kPa	880.848 ± 0.2
293.15 K, 20012 kPa	880.925 ± 0.2
293.15 K, 21348 kPa	881.783 ± 0.2
293.15 K, 21972 kPa	882.207 ± 0.2
293.15 K, 22236 kPa	882.319 ± 0.2
293.15 K, 23457 kPa	883.155 ± 0.2
293.15 K, 23981 kPa	883.441 ± 0.2
293.15 K, 24105 kPa	883.586 ± 0.2
293.15 K, 25005 kPa	884.147 ± 0.2
293.15 K, 25908 kPa	884.671 ± 0.2
293.15 K, 26066 kPa	884.837 ± 0.2
293.15 K, 27839 kPa	885.935 ± 0.21
293.15 K, 27990 kPa	885.976 ± 0.21
293.15 K, 28091 kPa	886.104 ± 0.21
293.15 K, 28372 kPa	886.271 ± 0.21
293.15 K, 29914 kPa	887.239 ± 0.21
293.15 K, 30011 kPa	887.242 ± 0.21
313.15 K, 100.25 kPa	848.035 ± 0.2
313.15 K, 1103.1 kPa	848.903 ± 0.2
313.15 K, 2030.6 kPa	849.693 ± 0.2
313.15 K, 3897.3 kPa	851.277 ± 0.2
313.15 K, 6141.8 kPa	853.137 ± 0.2
313.15 K, 7925.2 kPa	854.59 ± 0.2
313.15 K, 9859 kPa	856.142 ± 0.2
313.15 K, 11935 kPa	857.774 ± 0.2
313.15 K, 13950 kPa	859.327 ± 0.2
313.15 K, 16069 kPa	860.941 ± 0.2
313.15 K, 17874 kPa	862.289 ± 0.2
313.15 K, 19838 kPa	863.738 ± 0.2
313.15 K, 22114 kPa	865.383 ± 0.2
313.15 K, 24097 kPa	866.799 ± 0.2
313.15 K, 25913 kPa	868.068 ± 0.2
313.15 K, 28005 kPa	869.523 ± 0.2
313.15 K, 29966 kPa	870.863 ± 0.2
333.15 K, 98.96 kPa	829.055 ± 0.19
333.15 K, 1101 kPa	830.042 ± 0.19
333.15 K, 2134.3 kPa	831.05 ± 0.19
333.15 K, 4003.8 kPa	832.841 ± 0.19
333.15 K, 6105.7 kPa	834.814 ± 0.19
333.15 K, 8005 kPa	836.556 ± 0.2
